In patent US20020019533A1, “PIPERIDINE DERIVATIVES AND ANTI-PLATELET AGENTS CONTAINING THE SAME” (priority 1994, published 2002):

Columns and labels:
serotonin 2 receptor = molecular target: T1, serotonin 2 receptor (Bos taurus, UniProt Q75Z89); assay: Binding affinity to the serotonin 2 receptor, [3H]-ketanserin, bovine cerebral cortex membrane; settings: negative logarithm of Ki, 3 nM [3H]-ketanserin, 25° C., 30 minutes
T1 construct: evaluated using a bovine cerebral cortex membrane sample; from tissue; host or cells: bovine cerebral cortex membranes
Protocol: The binding affinity to the serotonin 2 receptor was evaluated using a bovine cerebral cortex membrane sample. To 200 μl of a bovine membrane sample adjusted to 50 mg (wet weight) membrane/ml were added 200 μl of 3 nM [^3H]-ketanserin and 200 μl of a test compound solution prepared by dissolving a test compound in 1.7% ethanol, followed by mixing. The mixture was incubated at 25° C. for 30 minutes and filtered with a glass filter. The radioactivity trapped on the filter was measured with a liquid scintillation counter. The non-specific binding was defined by 10^−6 M LY53857. The concentration of the test compound which inhibits 50% of the specific binding of [^3H]-ketanserin (i.e., IC50 value) was obtained, and the Ki value was calculated in accordance with the following equation. The results are shown as the negative logarithm of the Ki value (i.e., pKi value). [formula]
In the equation, Ki indicates the dissociation constant and [L] indicates the concentration of [^3H]-ketanserin.

platelet of SD rats = assay: In vitro anti-platelet effect: platelet aggregation induced by ADP + serotonin in rat platelet rich plasma; format: cell-based; settings: rat PRP, 0.5 μM or 0.8 μM ADP + serotonin, 50% inhibition of the serotonin-caused increase in aggregation
Protocol: The anti-platelet effect due to the serotonin antagonistic activity was measured in vitro using the platelet of SD rats (body weight: about 300 to 400 g, male). Platelet rich plasma (PRP) and platelet poor plasma (PPP) were prepared from blood with 0.38% sodium citrate which was obtained from aorta abdominalis of a rat under diethyl ether anesthesia. The platelet concentration of PRP was adjusted to 5×10^8 platelets/ml by adding PPP. Then, the test compound dissolved in 0.4% aqueous ethanol was added, and the mixture was incubated at 37° C. for 3 minutes. The platelet aggregation induced by addition of 0.5 μM or 0.8 μM adenosine diphosphate (ADP)+ serotonin was measured as an increase in optical transmittance of PRP. The concentration of the test compound which inhibits 50% of the increase in platelet aggregation which is obtained with serotonin without a test compound was measured, and its negative logarithm (pIC50) was calculated.

[1] = system: platelet aggregation by serotonin; assay: In vivo anti-platelet effect after oral administration: ADP + serotonin induced aggregation of PRP taken 2 hours after dosing; set-up: species or system SD rats; settings: 2 hours after administration, arabic gum group = 100%, n=3
Protocol: The anti-platelet effect due to the serotonin antagonistic activity was measured in vivo using SD rats (body weight: about 210 to 330 g, male). Two hours after the administration of the test compound, the rat was anesthetized with diethyl ether and platelet rich plasma (PRP) and platelet poor plasma (PPP) were prepared from blood with 0.38% sodium citrate which was obtained from aorta abdominalis of the rat. The platelet concentration of PRP was adjusted to 5×10^8 platelets/ml by adding PPP. Then, the PRP was incubated at 37° C. for 3 minutes, and platelet aggregation induced by addition of 0.7 μM adenosine diphosphate (ADP)+ serotonin was measured as an increase in optical transmittance of PRP. The aggregation occurred by addition of ADP alone and the maximum aggregation ratio by the simultaneous addition of ADP and serotonin were measured with respect to each group, and increase in aggregation caused by serotonin was calculated. The increase in aggregation caused by serotonin in the arabic gum administered group was taken as 100%, and the effect of the test compound was judged using as an index the increase in aggregation caused by the serotonin in the test compound-administered group (n=3).

[2] = system: head twitch of mouse induced by 5-hydroxytryptophan (5HTP); assay: Inhibiting effect on head twitch of mouse induced by 5-hydroxytryptophan (5HTP); format: in vivo, ICR mouse; settings: oral, 90 minutes before 5HTP (180 mg/kg i.p.); 50% inhibition of the number of head twitches
Protocol: The serotonin antagonistic activity in the central nerve system was evaluated by measuring the inhibiting effect on head twitch of mouse induced by 5-hydroxytryptophan (5HTP) A test compound in an amount of 1, 3, 10, or 30 mg was respectively dissolved in 100 ml of water and, 90 minutes before 5HTP administration, the solution (10 ml/kg body weight) was orally administered to a ICR mouse (body weight: 27 to 32 g, male) fasted from the previous day. As a control, 5% arabic gum was used. Carbidopa (6 mg/kg) was subcutaneously administered and, after 15 minutes, 5HTP (180 mg/kg) was intraperitoneally administered. From the 15 minutes after 5HTP administration, the number of head twitches occurred within 2 minutes were counted. The concentration of the test compound which inhibits 50% of the number of head twitches in the 5% arabic gum administered group was obtained.

T1 sequence (Q75Z89 whole entry): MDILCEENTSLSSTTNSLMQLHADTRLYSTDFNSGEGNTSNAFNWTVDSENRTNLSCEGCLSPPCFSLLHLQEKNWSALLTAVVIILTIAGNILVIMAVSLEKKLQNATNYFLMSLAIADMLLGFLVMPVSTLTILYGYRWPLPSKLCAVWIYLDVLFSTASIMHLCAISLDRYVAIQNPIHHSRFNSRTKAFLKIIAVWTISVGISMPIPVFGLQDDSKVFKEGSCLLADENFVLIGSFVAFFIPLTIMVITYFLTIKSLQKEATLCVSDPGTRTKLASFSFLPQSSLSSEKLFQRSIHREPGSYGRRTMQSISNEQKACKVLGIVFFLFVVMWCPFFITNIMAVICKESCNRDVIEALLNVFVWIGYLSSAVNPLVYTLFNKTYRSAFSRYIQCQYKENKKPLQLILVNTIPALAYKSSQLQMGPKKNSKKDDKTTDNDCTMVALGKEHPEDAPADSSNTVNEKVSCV

Structure (SMILES) | pKi (serotonin 2 receptor) | pIC50 (platelet of SD rats) | other results
O=C(NCCN1CCC(=C2c3ccccc3C=Cc3ccccc32)CC1)C1CCNCC1 [Compound 2] | 8.6 | 7.3 | 
CN(CCCC(=O)NCCN1CCC(=C2c3ccccc3C=Cc3ccccc32)CC1)C(=O)OC(C)(C)C [Compound 29] |  | 7.1 | 
O=CNCCCC(=O)NCCN1CCC(=C2c3ccccc3C=Cc3ccccc32)CC1 [Compound 24] | 9.8 | 7.2 | 
CC(C)(C)OC(=O)NCCCC(=O)NCCN1CCC(=C2c3ccccc3C=Cc3ccccc32)CC1 [Compound 26] |  | 7.2 | 
O=CNC1(C(=O)NCCN2CCC(=C3c4ccccc4C=Cc4ccccc43)CC2)CCCCC1 [Compound 21] | 7.8 | 6.5 | 
O=CN1CCC(C(=O)NCCN2CCC(=C3c4ccccc4C=Cc4ccccc43)CC2)CC1 [Compound 3] |  |  | Ki (serotonin 2 receptor): 3.98 nM; IC50 (platelet of SD rats; Platelet): 63.1 nM; Increase in aggregation by serotonin ([1]; 0.1 mg/kg oral): 75.7%; Increase in aggregation by serotonin ([1]; 0.3 mg/kg oral): 57.3%; Increase in aggregation by serotonin ([1]; 1 mg/kg oral): 24.3%; Increase in aggregation by serotonin ([1]; 3 mg/kg oral): 27%; Increase in aggregation by serotonin ([1]; 10 mg/kg oral): −2.7%; ID50 [2]: 0.39 mg/kg
C1=Cc2ccccc2C(=C2CCN(CCCCN3CCSCC3)CC2)c2ccccc21 [Compound 42] | 8.7 | 6.6 | 
CNCCCC(=O)NCCN1CCC(=C2c3ccccc3C=Cc3ccccc32)CC1 [Compound 28] |  | 6.6 | 
NCCCC(=O)NCCN1CCC(=C2c3ccccc3C=Cc3ccccc32)CC1 [Compound 23] |  | 7.6 | 
CC(C)(C)OC(=O)NC1(C(=O)NCCN2CCC(=C3c4ccccc4C=Cc4ccccc43)CC2)CCCCC1 [Compound 20] | 8.0 | 6.3 | 
CC(=O)NCCCC(=O)NCCN1CCC(=C2c3ccccc3C=Cc3ccccc32)CC1 [Compound 25] | 9.2 | 6.6 | 
CN1CCC(=C2c3ccccc3C=Cc3ccccc32)CC1 [cycloheptadine, reference compound] |  |  | ID50 [2]: 0.12 mg/kg
C1=Cc2ccccc2C(=C2CCN(CCCCN3CCOCC3)CC2)c2ccccc21 [Compound 41] | 8.2 | 6.9 | Increase in aggregation by serotonin ([1]; 0.3 mg/kg oral): 91.5%
CC(C)(C)OC(=O)NCCCN1CCC(=C2c3ccccc3C=Cc3ccccc32)CC1 [Compound 31] | 8.8 |  | 
CN(C)C(=O)NC1(C(=O)NCCN2CCC(=C3c4ccccc4C=Cc4ccccc43)CC2)CCCCC1 [Compound 22] | 8.2 | 5.8 | 
O=C(NCCN1CCC(=C2c3ccccc3C=Cc3ccccc32)CC1)C1CCCCN1 (centres unmarked) [Compound 9] | 7.8 | 7.1 | Increase in aggregation by serotonin ([1]; 0.3 mg/kg oral): 57.3%
CC(=O)NCC(=O)N1CCC(C(=O)NCCN2CCC(=C3c4ccccc4C=Cc4ccccc43)CC2)CC1 [Compound 8] | 7.9 | 6.6 | 
O=CN1CCN(C(=O)NCCN2CCC(=C3c4ccccc4C=Cc4ccccc43)CC2)CC1 [Compound 11] | 8.8 | 7.0 | 
NC1(C(=O)NCCN2CCC(=C3c4ccccc4C=Cc4ccccc43)CC2)CCCCC1 [Compound 18] | 8.9 | 7.3 | Increase in aggregation by serotonin ([1]; 0.3 mg/kg oral): 94.9%
CC(=O)NC1(C(=O)NCCN2CCC(=C3c4ccccc4C=Cc4ccccc43)CC2)CCCCC1 [Compound 19] | 8.3 | 6.4 | 
CN(C)C(=O)NCCCC(=O)NCCN1CCC(=C2c3ccccc3C=Cc3ccccc32)CC1 [Compound 27] | 9.2 | 6.9 | 
NC1CCC(C(=O)NCCN2CCC(=C3c4ccccc4C=Cc4ccccc43)CC2)CC1 (centres unmarked) [Compound 12] | 8.6 | 6.6 | 
CC(C)(C)OC(=O)N1CCC(C(=O)NCCN2CCC(=C3c4ccccc4C=Cc4ccccc43)CC2)CC1 [Compound 5] | 8.0 | 6.5 | 
CCOC(=O)NCCN1CCC(=C2c3ccccc3C=Cc3ccccc32)CC1 [Compound 16] |  | 7.6 | 
O=CN1CCC(C(=O)NCCN2CCC(=C3c4ccccc4C=Cc4ccccc43)CC2)CC1 [Compound 6] |  | 6.9 | 
CC(C)(C)OC(=O)NCCN1CCC(=C2c3ccccc3C=Cc3ccccc32)CC1 [Compound 17] |  | 7.0 | Increase in aggregation by serotonin ([1]; 0.3 mg/kg oral): 50.7%
